According to the NIST ThermoML archive (doi:10.1016/j.jct.2011.09.027):
± gives the expanded uncertainty stated by the source.

Conditions: Liquid; for viscosity: Concentric cylinders viscometry; for mass density: Vibrating tube method

CCOS(=O)(=O)[O-].CCn1cc[n+](C)c1 [1-ethyl-3-methylimidazolium ethyl sulfate]
Conditions	mass density [kg/m3]	viscosity [mPa·s]
278.15 K, 101.33 kPa	–	309.1 ± 9.8
283.12 K, 19658 kPa	1255.37 ± 1.6	–
283.13 K, 29946 kPa	1259.21 ± 1.7	–
283.14 K, 98469 kPa	1282.72 ± 2.5	–
283.15 K, 101.33 kPa	1247.88 ± 1.4	225.2 ± 6.6
283.15 K, 40036 kPa	1262.89 ± 1.8	–
283.15 K, 49963 kPa	1266.44 ± 1.9	–
283.15 K, 59714 kPa	1269.86 ± 2.1	–
283.15 K, 69986 kPa	1273.38 ± 2.2	–
283.15 K, 79625 kPa	1276.61 ± 2.3	–
283.15 K, 89964 kPa	1280 ± 2.4	–
283.15 K, 109866 kPa	1286.29 ± 2.7	–
283.15 K, 120746 kPa	1289.61 ± 2.8	–
283.15 K, 129872 kPa	1292.32 ± 3	–
283.15 K, 139485 kPa	1295.11 ± 3.1	–
283.16 K, 1391 kPa	1248.37 ± 1.4	–
283.18 K, 9875 kPa	1251.65 ± 1.5	–
283.19 K, 5138 kPa	1249.82 ± 1.4	–
293.13 K, 39626 kPa	1256.03 ± 1.8	–
293.14 K, 1092 kPa	1241.38 ± 1.4	–
293.14 K, 3910 kPa	1242.48 ± 1.4	–
293.14 K, 9925 kPa	1244.83 ± 1.5	–
293.14 K, 19948 kPa	1248.68 ± 1.6	–
293.14 K, 29954 kPa	1252.45 ± 1.7	–
293.14 K, 123824 kPa	1284.35 ± 2.8	–
293.14 K, 129866 kPa	1286.19 ± 2.9	–
293.14 K, 140209 kPa	1289.28 ± 3.1	–
293.15 K, 101.33 kPa	1241.01 ± 1.4	123.5 ± 3.1
293.15 K, 49964 kPa	1259.78 ± 1.9	–
293.15 K, 89997 kPa	1273.58 ± 2.4	–
293.15 K, 99862 kPa	1276.81 ± 2.5	–
293.15 K, 109863 kPa	1280.01 ± 2.6	–
293.16 K, 80177 kPa	1270.3 ± 2.3	–
293.17 K, 69997 kPa	1266.83 ± 2.1	–
293.18 K, 60017 kPa	1263.35 ± 2	–
298.13 K, 19821 kPa	1245.34 ± 1.6	–
298.13 K, 29997 kPa	1249.26 ± 1.7	–
298.13 K, 39886 kPa	1252.98 ± 1.8	–
298.15 K, 49994 kPa	1256.71 ± 1.9	–
298.15 K, 58874 kPa	1259.91 ± 2	–
298.15 K, 69996 kPa	1263.83 ± 2.1	–
298.16 K, 101.33 kPa	1237.53 ± 1.4	97.2 ± 2.3
298.16 K, 10471 kPa	1241.67 ± 1.5	–
298.16 K, 79619 kPa	1267.14 ± 2.2	–
298.16 K, 89998 kPa	1270.63 ± 2.4	–
298.16 K, 99253 kPa	1273.66 ± 2.5	–
298.16 K, 109867 kPa	1277.06 ± 2.6	–
298.16 K, 120082 kPa	1280.24 ± 2.8	–
298.16 K, 129865 kPa	1283.2 ± 2.9	–
298.16 K, 139020 kPa	1285.9 ± 3	–
298.17 K, 5192 kPa	1239.56 ± 1.4	–
298.19 K, 981 kPa	1237.87 ± 1.4	–
303.15 K, 101.33 kPa	–	77.1 ± 1.8
313.1 K, 944 kPa	1227.8 ± 1.3	–
313.14 K, 4705 kPa	1229.35 ± 1.4	–
313.14 K, 39636 kPa	1243.24 ± 1.8	–
313.14 K, 49994 kPa	1247.16 ± 1.9	–
313.14 K, 60122 kPa	1250.92 ± 2	–
313.15 K, 101.33 kPa	1227.47 ± 1.3	50.9 ± 1.1
313.15 K, 19818 kPa	1235.48 ± 1.5	–
313.15 K, 30003 kPa	1239.51 ± 1.6	–
313.15 K, 69996 kPa	1254.49 ± 2.1	–
313.15 K, 109873 kPa	1268.13 ± 2.6	–
313.15 K, 120354 kPa	1271.49 ± 2.7	–
313.15 K, 129874 kPa	1274.47 ± 2.8	–
313.16 K, 9378 kPa	1231.27 ± 1.4	–
313.16 K, 79657 kPa	1257.92 ± 2.2	–
313.16 K, 89993 kPa	1261.49 ± 2.3	–
313.16 K, 99450 kPa	1264.69 ± 2.4	–
313.16 K, 138377 kPa	1277.07 ± 2.9	–
323.15 K, 101.33 kPa	–	35.1 ± 0.8
333.12 K, 19852 kPa	1222.8 ± 1.5	–
333.12 K, 79184 kPa	1246.16 ± 2.1	–
333.13 K, 9972 kPa	1218.57 ± 1.4	–
333.13 K, 89997 kPa	1250.05 ± 2.3	–
333.13 K, 97104 kPa	1252.54 ± 2.3	–
333.15 K, 101.33 kPa	1214.27 ± 1.3	25.2 ± 0.6
333.15 K, 4956 kPa	1216.39 ± 1.4	–
333.15 K, 29992 kPa	1227.03 ± 1.6	–
333.15 K, 69997 kPa	1242.77 ± 2	–
333.15 K, 109862 kPa	1256.89 ± 2.5	–
333.15 K, 121234 kPa	1260.63 ± 2.6	–
333.16 K, 49995 kPa	1235.1 ± 1.8	–
333.16 K, 60002 kPa	1238.99 ± 1.9	–
333.16 K, 129872 kPa	1263.39 ± 2.8	–
333.17 K, 1680 kPa	1214.95 ± 1.3	–
333.17 K, 40144 kPa	1231.18 ± 1.7	–
333.18 K, 139672 kPa	1266.43 ± 2.9	–
343.15 K, 101.33 kPa	–	18.7 ± 0.4
353.13 K, 19599 kPa	1209.45 ± 1.4	–
353.13 K, 29993 kPa	1214.03 ± 1.6	–
353.13 K, 39918 kPa	1218.29 ± 1.6	–
353.13 K, 79974 kPa	1234.36 ± 2.1	–
353.13 K, 119073 kPa	1248.32 ± 2.5	–
353.14 K, 89917 kPa	1238.07 ± 2.2	–
353.14 K, 99462 kPa	1241.53 ± 2.3	–
353.14 K, 109824 kPa	1245.17 ± 2.4	–
353.14 K, 129849 kPa	1251.87 ± 2.7	–
353.14 K, 139892 kPa	1255.06 ± 2.8	–
353.15 K, 101.33 kPa	1200.53 ± 1.3	14.6 ± 0.3
353.15 K, 49925 kPa	1222.47 ± 1.8	–
353.15 K, 69993 kPa	1230.52 ± 2	–
353.18 K, 59605 kPa	1226.41 ± 1.9	–
353.19 K, 1193 kPa	1201.04 ± 1.3	–
353.19 K, 4987 kPa	1202.81 ± 1.3	–
353.19 K, 10093 kPa	1205.15 ± 1.4	–
363.15 K, 101.33 kPa	1194.25 ± 1.3	11.9 ± 0.3
373.11 K, 118179 kPa	1236.88 ± 2.4	–
373.12 K, 19814 kPa	1197.22 ± 1.4	–
373.13 K, 10765 kPa	1192.98 ± 1.3	–
373.13 K, 29997 kPa	1201.88 ± 1.5	–
373.13 K, 39971 kPa	1206.31 ± 1.6	–
373.13 K, 98959 kPa	1230.06 ± 2.2	–
373.13 K, 109856 kPa	1233.98 ± 2.4	–
373.13 K, 129856 kPa	1240.8 ± 2.6	–
373.14 K, 49993 kPa	1210.64 ± 1.7	–
373.15 K, 101.33 kPa	–	9.7 ± 0.2
373.15 K, 59698 kPa	1214.72 ± 1.8	–
373.15 K, 90001 kPa	1226.72 ± 2.1	–
373.15 K, 140000 kPa	1244.08 ± 2.7	–
373.16 K, 69987 kPa	1218.92 ± 1.9	–
373.17 K, 1377 kPa	1188.48 ± 1.2	–
373.17 K, 5226 kPa	1190.34 ± 1.3	–
373.17 K, 79962 kPa	1222.87 ± 2	–
393.12 K, 910 kPa	1175.14 ± 1.2	–
393.12 K, 59389 kPa	1202.77 ± 1.8	–
393.12 K, 69993 kPa	1207.25 ± 1.9	–
393.12 K, 79111 kPa	1210.99 ± 1.9	–
393.13 K, 5153 kPa	1177.31 ± 1.2	–
393.13 K, 89994 kPa	1215.29 ± 2.1	–
393.14 K, 99376 kPa	1218.86 ± 2.2	–
393.15 K, 49959 kPa	1198.64 ± 1.6	–
393.15 K, 109877 kPa	1222.71 ± 2.3	–
393.15 K, 119972 kPa	1226.26 ± 2.4	–
393.15 K, 129874 kPa	1229.6 ± 2.5	–
393.15 K, 139106 kPa	1232.59 ± 2.6	–
393.16 K, 10368 kPa	1179.94 ± 1.3	–
393.16 K, 20408 kPa	1184.89 ± 1.4	–
393.16 K, 29995 kPa	1189.49 ± 1.5	–
393.16 K, 39725 kPa	1194.02 ± 1.6	–
413.12 K, 9823 kPa	1167.05 ± 1.3	–
413.12 K, 98120 kPa	1207.66 ± 2.1	–
413.13 K, 19924 kPa	1172.37 ± 1.3	–
413.13 K, 109866 kPa	1212.06 ± 2.2	–
413.13 K, 120361 kPa	1215.8 ± 2.3	–
413.15 K, 5311 kPa	1164.62 ± 1.2	–
413.15 K, 29993 kPa	1177.5 ± 1.4	–
413.15 K, 89994 kPa	1204.48 ± 2	–
413.15 K, 129864 kPa	1219.02 ± 2.4	–
413.17 K, 1563 kPa	1162.57 ± 1.2	–
413.17 K, 39896 kPa	1182.37 ± 1.5	–
413.17 K, 49998 kPa	1187.17 ± 1.6	–
413.17 K, 59469 kPa	1191.52 ± 1.7	–
413.17 K, 69996 kPa	1196.16 ± 1.8	–
413.17 K, 139292 kPa	1222.06 ± 2.5	–
413.18 K, 79893 kPa	1200.36 ± 1.9	–
